Source: patent US9926506B2, “Tetrarylmethane ethers as fuel markers” (Dow Global Technologies LLC, priority 2014, dated 2018)

Row | melting point [°C] | SMILES
1 | 103 to 105 | CCCCCCCOc1ccc(C(c2ccccc2)(c2ccccc2)c2ccc(OCCCCCCC)cc2)cc1 [BHeptTPM, Bis(4-(heptyloxy)phenyl)diphenylmethane]
2 | 120 to 122 | CCCCCCOc1ccc(C(c2ccccc2)(c2ccccc2)c2ccc(OCCCCCC)cc2)cc1 [BHexTPM]
3 | 84.5 to 86.5 | CCCCCCCCOc1ccc(C(c2ccccc2)(c2ccccc2)c2ccc(OCCCCCCCC)cc2)cc1 [BOctTPM, Bis(4-(octyloxy)phenyl)diphenylmethane]
4 | 110 to 113 | CCCCCOc1ccc(C(c2ccccc2)(c2ccccc2)c2ccc(OCCCCC)cc2)cc1 [BPentTPM, Bis(4-(pentyloxy)phenyl)diphenylmethane]
